Values of other authors, collected in patent US20250228849A1, “FORMULATION AND MANUFACTURING PROCESS OF LIQUID FORMULATION OF RILPIVIRINE” (Aptorum Therapeutics Limited, priority 2024, published 2025).
Where two headings read alike, the source gives them in different places.

Assays:
[1] = pyrimidine nitrogen
[2] = hydrochloride salt form

| pKa [1] | BCS class [2] | solubility (in DMSO) | solubility (in ethanol) | solubility (in methanol) | solubility (in water) | Structure (SMILES) |
| --- | --- | --- | --- | --- | --- | --- |
| approximately 5.6 | BCS Class II | moderately soluble | moderately soluble | moderately soluble | merely sparing solubility | Cc1cc(C=CC#N)cc(C)c1Nc1ccnc(Nc2ccc(C#N)cc2)n1.Cl [Rilpivirine hydrochloride, 4-[[4-[[4-(2-cyanovinyl)-2,6-dimethylphenyl]amino]pyrimidin-2-yl]amino]benzonitrile hydrochloride] |
|  |  |  |  |  | low aqueous solubility | Cc1cc(/C=C/C#N)cc(C)c1Nc1ccnc(Nc2ccc(C#N)cc2)n1 [rilpivirine] |
